{"source": "patent US20230094196A1", "about": "“AN IMPLANTABLE MEDICAL DEVICE” (NATIONAL UNIVERSITY OF IRELAND, GALWAY, priority 2019, published 2023)", "settings": "for time to therapeutic effect (time when dP/dt max leveled off): n=1", "note": "Like-named read-outs stand apart in the source and are kept apart here.", "protocol": "Female Sprague Dawley rats (225-300 g) were anaesthetized using isoflurane (1-3% isoflurane in oxygen). Animals were treated with a single dose of sustained release buprenorphine (Bup-SR) at 1 mg/kg subcutaneously to control pain. 2 device of the invention reservoirs (porous or non-porous) were implanted subcutaneously in the rat, the device implantation procedure is shown in FIG. 3A. Briefly, the hair on the back of the rat was removed and surgical sites were prepared with 3 washes of Betadine and 70% ethanol. Devices were sterilized using ethylene oxide prior to implantation. An anterior incision was made at the base of the neck for the and 2 posterior incisions were made 9 cm from the original incision along the back of the rat, 1 cm lateral of the spine. A blunt dissection was made at all incisions and a forceps was used to tunnel subcutaneously from the anterior to the posterior sites. A vascular access button, or self-sealing subcutaneous port (VAB95BS-MRI, VABM2B/22R22, VABR4B/22 Instech Laboratories), was connected to the dorsal end of the catheter of each device of the invention reservoir. The port was placed in position at the base of the neck and the devices tunneled posteriorly into position. The port was secured to the underlying fascia using at least one interrupted suture (5-0 monofilament). Each device of the invention reservoir was secured to the underlying fascia with one suture at either side (7-0 monofilament). The skin was closed with interrupted sutures (5-0 monofilament) and the animal was allowed to recover on a heated pad. 3 mL of warm saline were administered subcutaneously. The following day, one of the two implanted device of the invention reservoirs was actuated at controlled input pressures of 1 PSI (Regime 1) or 2 PSI (Regime 2) at 1 Hz every 12 hours for 14 days (FIG. 3b) and compared to the non-actuated control reservoir for analysis. On day 15, animals were sacrificed by CO2. Following sacrifice, each device and the immediate surrounding tissue were extracted.", "data": [{"smiles": "CNC[C@H](O)c1ccc(O)c(O)c1", "note": "[epinephrine]", "values": [{"measurement": "time to therapeutic effect (time when dP/dt max leveled off)", "setting": "actuated device, 35 uL of 1 mg/ml", "value": "~40", "unit": "s"}, {"measurement": "time to therapeutic effect (time when dP/dt max leveled off)", "setting": "control (non-actuated) device, same animal", "value": "~170", "unit": "s"}, {"measurement": "cyclical average dp/dt max in the first 40 s after delivery, actuation group compared with control", "setting": "first 40 s after delivery, P<0.0001", "value": "significantly higher"}]}]}
